# Counter-ions that a name gives are not always drawn. Like-named read-outs stand apart in the source and are kept apart here.
# How the values were obtained:
# [1] = Redox Indicators; cited from earlier work
# M1WT3 cells = experiment: Carbachol stimulation of M1WT3 cells, extracellular acidification rate in a THERMOmax microplate reader (Example 8); assay type: cell-based; details: for ΔpH/Sec: mean of triplicate
# Experimental: The M1WT3 cells used for the following experiments were obtained from the American Type Culture Collection (No. CRL 1985). These cells were a line of CHO-K1 cells transfected with the gene for muscarinic receptors in order to provide cells responsive to cholinergic agonists, such as Carbachol. The M1WT3 cells were grown in Ham's F12 medium with 50 μg/ml […] (Geneticin), 10% fetal bovine serum, […], 1.0 mg/L streptomycin and 1000 units/L penicillin (growing medium) under 5% CO2 at 37° C.
# To initiate growth, 5×10^4 M1WT3 cell/well (200 μL/well) were sterilely plated in selected individual wells of a flat bottom 96-well microplate. The selected wells were comprised of the inner 60 wells. At least 3 of the inner wells, however, were left without cells to be used as control wells. The entire microplate then was covered with a loosely-fitting plastic cover that allowed gas exchange to the wells and the microplate was incubated at 37° C. for approximately 24 hours to allow cells to attach to bottom of each selected well with cells.
# Twelve hours prior to measuring extracellular acidification the growing media was aspirated off with a vacuum system and replaced with 200 μL of starving media (growing media with 1 mg/ml bovine serum albumin in place of the 10% fetal bovine serum) and the cells were again placed under 5% CO2 at 37° C. The microplate was then incubated for 12 hours. Within 30-60 minutes prior to monitoring the rates of extracellular acidification, the starving medium was aspirated off, the wells were rinsed with approximately 200 μL simple indicator medium (Table 2 components) and then filled with 200 μL of simple indicator medium. All media was warmed to 37° C. before addition to the cells.
# The light absorbance of the individual wells of the 96-well microplate was read in a THERMOmax™ microplate absorbance reader modified to record the ratio of optical density at two wavelengths (560 nm/420 nm), kinetically at 37° C. for 15 minutes with automix on. The automix feature is described in the Operator's Manual for the THERMOmax™ instrument (Catalog No. 0112-0014) of Molecular Devices Corporation, Menlo Park, Calif. The automix feature provides for uniform mixing of the contents of each well of the multiassay plate for about 5 seconds, followed by measurement of optical density at the first wavelength (in this case 560 nm) in about 5 seconds, followed by a change in interference filter in about 1 second, followed by measurement of optical density at the second wavelength (in this case 420 nm) in about 5 seconds. Thus, all optical density measurements are completed within 11 seconds following termination of the agitation step and the time elapsed for any one well between measuring the optical density at the first and second wavelengths was 6 seconds. This was the minimum time between reading optical density at the first and second wavelengths possible with the THERMOmax™ instrument. Preferably the readings at the first and second wavelengths are made simultaneously.
# Additionally, the contents of the microplate wells were not agitated between reading optical density at the first and second wavelengths so that the light scattering effects of the cells tended to be the same for the optical density measurements made at the first and second wavelengths for any one well. […] The reading cycle, with agitation, measuring absorbance at the first wavelength of light, changing the filter, and reading the absorbance at the second wavelength of light, was repeated at the rate of 3 cycles per minute (i.e. every 20 seconds).
# At the end of the 15 minutes the reading cycles were stopped, the microplate was removed and the media was quickly aspirated off and replaced with simple indicator media containing a cell-affecting agent, in this case 0 to 300 μM Carbachol. The reading cycles then were repeated, as above, for two consecutive 15 minute data collection periods followed by one final 30 minute data collection period. […]
# [2] = Apparent pH change with temperature of buffering systems as indicated by phenol red; assay type: physicochemical; details: phenol red pH indicator, 50 mM total buffer
compound,measurement,setting,value
"O=C1C(Cl)=CC(=Nc2ccc(O)cc2)C=C1Cl [2,6-Dichloroindophenol Sodium Salt]",Potential at pHOa,[1],0.67 Volts
"COc1cc(-c2ccc(N)c(OC)c2)ccc1N.Cl.Cl [3,3'-Dimethoxybenzidine Dihydrochloride]",Potential at pHOa,[1],0.76 Volts
"COc1cc(-c2ccc(N)c(OC)c2)ccc1N [3,3'-Dimethoxybenzidine]",Potential at pHOa,[1],0.76 Volts
O=S(=O)([O-])c1ccc(Nc2ccccc2)cc1.O=S(=O)([O-])c1ccc(Nc2ccccc2)cc1.[Ba+2] [Barium Diphenylaminesulfonate],Potential at pHOa,[1],0.85 Volts
C[N+](C)(C)CCOC(N)=O [Carbachol],ΔProtons/Cell·Sec minus 0 Carbachol,"M1WT3 cells; 3 μM, First 15 min",1.00E + 07 ΔProtons/Cell·Sec
same,ΔpH/Sec,"M1WT3 cells; 3 μM, First 15 min",7.1534E - 05 ΔpH/Sec
same,ΔProtons/Cell·Sec minus 0 Carbachol,"M1WT3 cells; 3 μM, Last 30 min",1.44E - 07 ΔProtons/Cell·Sec
same,ΔpH/Sec,"M1WT3 cells; 3 μM, Last 30 min",5.0490E - 05 ΔpH/Sec
same,ΔProtons/Cell·Sec minus 0 Carbachol,"M1WT3 cells; 3 μM, Second 15 min",1.12E - 07 ΔProtons/Cell·Sec
same,ΔpH/Sec,"M1WT3 cells; 3 μM, Second 15 min",5.2542E - 05 ΔpH/Sec
same,ΔProtons/Cell·Sec minus 0 Carbachol,"M1WT3 cells; 10 μM, First 15 min",1.44E + 07 ΔProtons/Cell·Sec
same,ΔpH/Sec,"M1WT3 cells; 10 μM, First 15 min",7.5928E - 05 ΔpH/Sec
same,ΔProtons/Cell·Sec minus 0 Carbachol,"M1WT3 cells; 10 μM, Last 30 min",2.10E - 07 ΔProtons/Cell·Sec
same,ΔpH/Sec,"M1WT3 cells; 10 μM, Last 30 min",5.7103E - 05 ΔpH/Sec
same,ΔpH/Sec,"M1WT3 cells; 10 μM, Second 15 min",5.6378E - 05 ΔpH/Sec
same,ΔProtons/Cell·Sec minus 0 Carbachol,"M1WT3 cells; 30 μM, First 15 min",1.12E + 07 ΔProtons/Cell·Sec
same,ΔpH/Sec,"M1WT3 cells; 30 μM, First 15 min",7.2713E - 05 ΔpH/Sec
same,ΔpH/Sec,"M1WT3 cells; 30 μM, Last 30 min",5.7641E - 05 ΔpH/Sec
same,ΔProtons/Cell·Sec minus 0 Carbachol,"M1WT3 cells; 30 μM, Second 15 min",1.47E - 07 ΔProtons/Cell·Sec
same,ΔpH/Sec,"M1WT3 cells; 30 μM, Second 15 min",5.6101E - 05 ΔpH/Sec
same,ΔProtons/Cell·Sec minus 0 Carbachol,"M1WT3 cells; 300 μM, First 15 min",6.76E + 06 ΔProtons/Cell·Sec
same,ΔpH/Sec,"M1WT3 cells; 300 μM, First 15 min",8.8294E - 05 ΔpH/Sec
same,ΔpH/Sec,"M1WT3 cells; 300 μM, Last 30 min",5.2560E - 05 ΔpH/Sec
same,ΔProtons/Cell·Sec minus 0 Carbachol,"M1WT3 cells; 300 μM, Second 15 min",1.11E - 07 ΔProtons/Cell·Sec
same,ΔpH/Sec,"M1WT3 cells; 300 μM, Second 15 min",5.2420E - 05 ΔpH/Sec
same,activation at 3 µM,"M1WT3 cells; 0.25 h, 3 μM, First 15 min, read-out: % Change compared to pre-Carbachol",5.94%
same,activation at 3 µM,"M1WT3 cells; 0.25 h, 3 μM, First 15 min, read-out: % Change compared to pre-Carbachol minus 0 Carbachol",12.6%
same,activation at 10 µM,"M1WT3 cells; 0.25 h, 10 μM, First 15 min, read-out: % Change compared to pre-Carbachol",20%
same,activation at 10 µM,"M1WT3 cells; 0.25 h, 10 μM, First 15 min, read-out: % Change compared to pre-Carbachol minus 0 Carbachol",26.6%
same,activation at 30 µM,"M1WT3 cells; 0.25 h, 30 μM, First 15 min, read-out: % Change compared to pre-Carbachol",18.6%
same,activation at 30 µM,"M1WT3 cells; 0.25 h, 30 μM, First 15 min, read-out: % Change compared to pre-Carbachol minus 0 Carbachol",25.3%
same,activation at 300 µM,"M1WT3 cells; 0.25 h, 300 μM, First 15 min, read-out: % Change compared to pre-Carbachol",19.4%
same,activation at 300 µM,"M1WT3 cells; 0.25 h, 300 μM, First 15 min, read-out: % Change compared to pre-Carbachol minus 0 Carbachol",26.1%
same,activation at 3 µM,"M1WT3 cells; 0.5 h, 3 μM, Last 30 min, read-out: % Change compared to pre-Carbachol",-25.2%
same,activation at 3 µM,"M1WT3 cells; 0.5 h, 3 μM, Last 30 min, read-out: % Change compared to pre-Carbachol minus 0 Carbachol",20%
same,activation at 3 µM,"M1WT3 cells; 0.5 h, 3 μM, Second 15 min, read-out: % Change compared to pre-Carbachol",-22.2%
same,activation at 3 µM,"M1WT3 cells; 0.5 h, 3 μM, Second 15 min, read-out: % Change compared to pre-Carbachol minus 0 Carbachol",15%
same,activation at 10 µM,"M1WT3 cells; 0.5 h, 10 μM, Last 30 min, read-out: % Change compared to pre-Carbachol",-9.77%
same,activation at 10 µM,"M1WT3 cells; 0.5 h, 10 μM, Last 30 min, read-out: % Change compared to pre-Carbachol minus 0 Carbachol",35.5%
same,activation at 10 µM,"M1WT3 cells; 0.5 h, 10 μM, Second 15 min, read-out: % Change compared to pre-Carbachol",-10.9%
same,activation at 10 µM,"M1WT3 cells; 0.5 h, 10 μM, Second 15 min, read-out: % Change compared to pre-Carbachol minus 0 Carbachol",26.3%
same,activation at 30 µM,"M1WT3 cells; 0.5 h, 30 μM, Last 30 min, read-out: % Change compared to pre-Carbachol",-5.63%
same,activation at 30 µM,"M1WT3 cells; 0.5 h, 30 μM, Last 30 min, read-out: % Change compared to pre-Carbachol minus 0 Carbachol",39.6%
same,activation at 30 µM,"M1WT3 cells; 0.5 h, 30 μM, Second 15 min, read-out: % Change compared to pre-Carbachol",-8.46%
same,activation at 30 µM,"M1WT3 cells; 0.5 h, 30 μM, Second 15 min, read-out: % Change compared to pre-Carbachol minus 0 Carbachol",28.8%
same,activation at 300 µM,"M1WT3 cells; 0.5 h, 300 μM, Last 30 min, read-out: % Change compared to pre-Carbachol",-8.08%
same,activation at 300 µM,"M1WT3 cells; 0.5 h, 300 μM, Last 30 min, read-out: % Change compared to pre-Carbachol minus 0 Carbachol",37.2%
same,activation at 300 µM,"M1WT3 cells; 0.5 h, 300 μM, Second 15 min, read-out: % Change compared to pre-Carbachol",-8.33%
same,activation at 300 µM,"M1WT3 cells; 0.5 h, 300 μM, Second 15 min, read-out: % Change compared to pre-Carbachol minus 0 Carbachol",28.9%
O=C(O)CC(O)(CC(=O)O)C(=O)O [Citrate buffer],apparent change in pH with change in temperature,[2]; with 1.0M NaCl added,8.06 millipH/°C.
"O.O.[C-]#N.[C-]#N.[Fe+2].c1cnc2c(c1)ccc1cccnc12.c1cnc2c(c1)ccc1cccnc12 [Dicyanobis(1,10-phenanthroline)Iron]",Potential at pHOa,[1],1.41 Volts
c1ccc(Nc2ccccc2)cc1 [Diphenylamine],Potential at pHOa,[1],0.76 Volts
"O=C(O)CN(CCN(CC(=O)O)CC(=O)O)CC(=O)O [EDTA, Ethylenedinitrilo-Tetraacetic Acid]",apparent change in pH with change in temperature,[2]; equilibrium with CO2 in air,less than 1 millipH/°C.
"O=S(=O)(O)CCN1CCN(CCO)CC1 [HEPES, N-[2-Hydroxyethyl]piperazine-N'-[2-ethanesulfonic acid]]",apparent change in pH with change in temperature,[2]; equilibrium with CO2 in air,-3.92 millipH/°C.
"O=S(=O)(O)CCN1CCOCC1 [MES, 2-[N-Morpholino]ethanesulfonic acid]",apparent change in pH with change in temperature,[2]; equilibrium with CO2 in air,-4.74 millipH/°C.
"O=S(=O)(O)CCCN1CCOCC1 [MOPS, 3-[N-Morpholino]propanesulfonic acid]",apparent change in pH with change in temperature,[2]; equilibrium with CO2 in air,less than 1 millipH/°C.
CN(C)c1ccc2nc3ccc(=[N+](C)C)cc-3sc2c1 [Methylene Blue],Potential at pHOa,[1],0.53 Volts
"CN(C)c1ccc(N)cc1 [N,N-Dimethyl-p-phenylanediamine]",Potential at pHOa,[1],0.76 Volts
"CN(C)c1ccc(N=C2C=CC(=O)C=C2)cc1 [N,N-Dimethylindoaniline]",Potential at pHOa,[1],0.22 Volts
COc1ccc(Nc2ccc(N)cc2)cc1 [N-(p-Methoxyphenyl)-p-phenylanediamine Hydrochloride],Potential at pHOa,[1],0.71 Volts
O=C(O)c1ccccc1Nc1ccccc1 [N-Phenylanthranilic Acid],Potential at pHOa,[1],1.08 Volts
Cc1cc2nc3ccc(N(C)C)cc3nc2cc1N [Neutral Red],Potential at pHOa,[1],-0.24 Volts
CC[N+](CC)=c1ccc2nc3c(cc(N)c4ccccc43)oc-2c1 [Nile Blue A],Potential at pHOa,[1],0.29 Volts
"O=S(=O)(O)CCCNC(CO)(CO)CO [TAPS, 3-{[tris-(hydroxymethyl)-methyl]-amino}-propanesulfonicacid]",apparent change in pH with change in temperature,[2]; equilibrium with CO2 in air,-12.07 millipH/°C.
Nc1ccc2nc3ccc(N)cc3[s+]c2c1 [Thionin],Potential at pHOa,[1],0.56 Volts
"O=S(=O)([O-])[O-].[Fe+2].c1cnc2c(c1)ccc1cccnc12.c1cnc2c(c1)ccc1cccnc12.c1cnc2c(c1)ccc1cccnc12 [Tris(1,10-phenanthroline)Iron(R) Sulfate]",Potential at pHOa,[1],1.14 Volts
CCN=C1C=CC(=C(c2ccc(NCC)c(C)c2)c2ccc(S(=O)(=O)O)cc2S(=O)(=O)O)C=C1C [Xylene Cyanol FF],Potential at pHOa,[1],1.00 Volts
Cc1cc(-c2ccc(N)c(C)c2)ccc1N [o-Tolidine],Potential at pHOa,[1],0.87 Volts
CCOc1ccc(N=Nc2ccc(N)cc2N)cc1 [p-Ethoxyphenylazo-m-phenylanediamine Monohydrochloride],Potential at pHOa,[1],0.76 Volts
Brilliant Cresyl Blue,Potential at pHOa,[1],0.58 Volts
Diphenylaminosulfonic Acid Sodium Salt,Potential at pHOa,[1],0.85 Volts
"N,N-Diphenylbenzidine",Potential at pHOa,[1],0.76 Volts

# — US5766875A, “Metabolic monitoring of cells in a microplate reader” (priority 1995, dated 1998)
